Laboratory results taken from patent US10076520B2, “Use of tyrosine kinase inhibitor in cancer treatment” (THE REGENTS OF THE UNIVERSITY OF COLORADO, A BODY CORPORATE, priority 2013, dated 2018).

Legend:
PKCδ = experiment: Immunoblot of PKCδ tyrosine phosphorylation in ParC5 cells treated with hydrogen peroxide; format: cell-based, rat; conditions: ParC5 cells pre-treated 30 mins prior to hydrogen peroxide
ParC5 cells = experiment: Irradiation-induced apoptosis (caspase-3 activity) in ParC5 cells; format: cell-based, rat; conditions: parC5 cells pre-treated 30 mins prior to 10 Gy irradiation; harvested after 18 hrs; p<0.05
Method: Cells were harvested after an additional 18 hrs and casapase 3 activity were measured.

Cc1ccc(NC(=O)c2ccc(CN3CCN(C)CC3)cc2)cc1Nc1nccc(-c2cccnc2)n1 [imatinib]
phosphorylation of PKCδ at Y64, Y155 and Y311 (PKCδ): inhibited phosphorylation of PKCδ at Y155 only | apoptosis (caspase 3 activity) (ParC5 cells): significant protection from apoptosis
